One assay deals with T1, muIDO2 (Mus musculus, UniProt Q8R0V5).
T1 sequence (Q8R0V5 1-405): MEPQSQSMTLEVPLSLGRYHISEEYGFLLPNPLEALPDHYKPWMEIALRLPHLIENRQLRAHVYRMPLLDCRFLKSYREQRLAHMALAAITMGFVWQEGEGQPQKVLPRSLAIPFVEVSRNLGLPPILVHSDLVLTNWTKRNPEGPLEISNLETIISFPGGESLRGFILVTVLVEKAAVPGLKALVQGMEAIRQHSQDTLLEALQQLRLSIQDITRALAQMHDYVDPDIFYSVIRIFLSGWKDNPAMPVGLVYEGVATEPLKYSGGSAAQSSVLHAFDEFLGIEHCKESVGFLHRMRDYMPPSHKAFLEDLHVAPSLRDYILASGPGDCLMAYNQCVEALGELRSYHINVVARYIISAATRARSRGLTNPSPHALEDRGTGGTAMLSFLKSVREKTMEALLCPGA
The assay can be described thus: kynurenine assay in 293-T-REx cells expressing muIDO2. Format: cell-based.

The target of another assay is muIDO1 (Mus musculus, UniProt P28776). Kind of assay: kynurenine assay in 293-T-REx cells expressing muIDO1. Format: cell-based.
muIDO1, sequence (P28776 whole entry): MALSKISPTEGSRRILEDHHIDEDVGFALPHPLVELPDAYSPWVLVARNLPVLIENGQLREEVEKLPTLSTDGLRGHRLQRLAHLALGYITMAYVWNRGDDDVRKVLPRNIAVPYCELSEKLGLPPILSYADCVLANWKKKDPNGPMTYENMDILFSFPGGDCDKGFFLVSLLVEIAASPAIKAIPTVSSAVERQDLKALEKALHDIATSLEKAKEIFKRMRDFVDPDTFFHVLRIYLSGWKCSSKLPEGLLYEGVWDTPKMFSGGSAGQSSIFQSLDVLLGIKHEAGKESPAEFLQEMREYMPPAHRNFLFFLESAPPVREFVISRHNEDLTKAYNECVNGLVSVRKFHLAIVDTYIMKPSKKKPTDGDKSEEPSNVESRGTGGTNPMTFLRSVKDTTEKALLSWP

`C=CC1=C(C)C2=Cc3c(C=C)c(C)c4[n]3[Zn][n]3c(c(C)c(CCC(=O)O)c3=CC3=NC(=C4)C(C)=C3CCC(=O)O)=CC1=N2` [ZnPP]: the half-inhibitory concentration (IC50) at muIDO2 worked out at 7.1 µM; on muIDO1 it was 3.3 µM.

These data come from PMC2885048 (Molecular cancer therapeutics, 2010).
